What was measured:
Type in all cases: functional
Maladera castanea [1] = experiment: Insecticidal activity against Maladera castanea assessed as mortality after 30 days; design: concentration or dose not given beside the values
Maladera castanea [2] = experiment: Insecticidal activity against Maladera castanea assessed as mortality after 10 days; design: concentration or dose not given beside the values
Anomala orientalis [3] = experiment: Insecticidal activity against Anomala orientalis assessed as mortality after 30 days; design: concentration or dose not given beside the values
Anomala orientalis [4] = experiment: Insecticidal activity against Anomala orientalis assessed as mortality after 20 days; design: concentration or dose not given beside the values
Anomala orientalis [5] = experiment: Insecticidal activity against Anomala orientalis assessed as mortality after 10 days; design: concentration or dose not given beside the values
Amphimallon majale [6] = experiment: Insecticidal activity against Amphimallon majalis (European chafer) assessed as mortality after 30 days
Amphimallon majale [7] = experiment: Insecticidal activity against Amphimallon majalis (European chafer) assessed as mortality after 20 days
Amphimallon majale [8] = experiment: Insecticidal activity against Amphimallon majalis (European chafer) assessed as mortality after 10 days
Popillia japonica [9] = experiment: Insecticidal activity against Popillia japonica assessed as mortality after 30 days
Popillia japonica [10] = experiment: Insecticidal activity against Popillia japonica assessed as mortality after 20 days
Popillia japonica [11] = experiment: Insecticidal activity against Popillia japonica assessed as mortality after 10 days
Maladera castanea [12] = experiment: Insecticidal activity against Maladera castanea assessed as mortality after 20 days; design: concentration or dose not given beside the values

| SMILES | Activity (Maladera castanea [1]) [%] | Activity (Maladera castanea [2]) [%] | Activity (Anomala orientalis [3]) [%] | Activity (Anomala orientalis [4]) [%] | Activity (Anomala orientalis [5]) [%] | Activity (Amphimallon majale [6]) [%] | Activity (Amphimallon majale [7]) [%] | Activity (Amphimallon majale [8]) [%] | Activity (Popillia japonica [9]) [%] | Activity (Popillia japonica [10]) [%] | Activity (Popillia japonica [11]) [%] | Activity (Maladera castanea [12]) [%] |
| --- | --- | --- | --- | --- | --- | --- | --- | --- | --- | --- | --- | --- |
| CC[C@H]1CCC[C@H](O[C@H]2CC[C@H](N(C)C)[C@@H](C)O2)[C@@H](C)C(=O)C2=C[C@@H]3[C@@H](C=C(C)[C@@H]4C[C@@H](O[C@@H]5O[C@@H](C)[C@H](OC)[C@@H](OC)[C@H]5OC)C[C@@H]34)[C@@H]2CC(=O)O1.CC[C@H]1CCC[C@H](O[C@H]2CC[C@H](N(C)C)[C@@H](C)O2)[C@@H](C)C(=O)C2=C[C@@H]3[C@@H](C=C[C@@H]4C[C@@H](O[C@@H]5O[C@@H](C)[C@H](OC)[C@@H](OC)[C@H]5OC)C[C@@H]34)[C@@H]2CC(=O)O1 | 79.6 | 6.6 | 59 | 31.4 | 3.2 | 26.5 | 11.8 | 17.1 | 58.9 | 33.5 | 7.3 | 20.6 |
| C/C=C(\C)C(=O)O[C@H]1C[C@@H](OC(C)=O)[C@@]2(C(=O)OC)CO[C@H]3[C@@H](O)[C@@](C)([C@]45O[C@@]4(C)[C@@H]4C[C@H]5O[C@@H]5OC=C[C@@]54O)[C@H]4[C@]1(CO[C@]4(O)C(=O)OC)[C@@H]32 [AZADIRACHTIN A] | – | – | – | – | – | 15.8 | 1.1 | 4 | 87.2 | 64.1 | 74.3 | – |
| Cc1c(COC(=O)[C@@H]2[C@H](/C=C(\Cl)C(F)(F)F)C2(C)C)cccc1-c1ccccc1 [BIFENTHRIN] | – | – | – | – | – | 0 | 0 | 0 | 86.7 | 59.3 | 36.9 | – |
| CCOP(=S)(OCC)Oc1nc(Cl)c(Cl)cc1Cl [CHLORPYRIFOS] | 92.4 | 65.5 | 98.6 | 94.8 | 87.9 | 100 | 89 | 43 | 100 | 84.4 | 62.7 | 89.6 |
| CN/C(=N\[N+](=O)[O-])NCc1cnc(Cl)s1 [CLOTHIANIDINE] | 100 | 39.8 | 98.6 | 89.3 | 56 | 44.3 | 22.6 | 19.8 | 32.8 | 22.9 | 4 | 75.7 |
| CN/C(=N/CC1CCOC1)N[N+](=O)[O-] (stereo not given) [DINOTEFURAN] | – | – | – | – | – | 8.9 | 2.2 | 0 | 86.2 | 69.3 | 54.4 | – |
| O=[N+]([O-])/N=C1\NCCN1Cc1ccc(Cl)nc1 [IMIDACLOPRID] | 38.8 | 9.2 | 68.3 | 30.1 | 9.7 | 34.2 | 18.3 | 13 | 41.7 | 22.6 | 9.1 | 12.2 |
| CN1COCN(Cc2cnc(Cl)s2)/C1=N\[N+](=O)[O-] [THIAMETHOXAM] | 72.8 | 28.2 | 78.7 | 57.5 | 27 | 35.1 | 16.4 | 13.1 | 91 | 74.9 | 48.1 | 39.1 |
| COP(=O)(OC)C(O)C(Cl)(Cl)Cl (stereo not given) [TRICHLORFON] | 100 | 70.3 | 96 | 95.1 | 95.6 | 7.4 | 2.6 | 6 | 94.8 | 92.6 | 71.3 | 97.7 |
